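A five-concentration, 48-hour dose response in 96-well plates underlies each endpoint, interpolated linearly between surrounding concentrations. At the GI50, growth is halved.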 Activity calls are given as the source filed them. No stated cut-off is given here; in the data, active = GI50 up to about 1.1 µM and inactive = higher.
How the values were obtained:
Test in all cases: growth of human tumour cells (NCI), 48 h
U-251 = test system: U-251
A549 = test system: A549
K562 = test system: K562
M14 = test system: M14
SW-620 = test system: SW-620
MCF7 = test system: MCF7
SF-295 = test system: SF-295
PC-3 = test system: PC-3
HCT-116 = test system: HCT-116
HL-60 = test system: HL-60
COLO 205 = test system: COLO 205
HCT-15 = test system: HCT-15
SF-268 = test system: SF-268
NCI/ADR-RES = test system: NCI/ADR-RES
HOP-92 = test system: HOP-92
SK-MEL-5 = test system: SK-MEL-5
SNB-75 = test system: SNB-75
OVCAR-8 = test system: OVCAR-8
UO-31 = test system: UO-31
MOLT-4 = test system: MOLT-4

Compound | GI50 (U-251) | GI50 (A549) | GI50 (K562) | GI50 (M14) | GI50 (SW-620) | GI50 (MCF7) | GI50 (SF-295) | GI50 (PC-3) | GI50 (HCT-116) | GI50 (HL-60) | GI50 (COLO 205) | GI50 (HCT-15) | GI50 (SF-268) | GI50 (NCI/ADR-RES) | GI50 (HOP-92) | GI50 (SK-MEL-5) | GI50 (SNB-75) | GI50 (OVCAR-8) | GI50 (UO-31) | GI50 (MOLT-4)
CSC(=S)N/N=C/c1ccccc1 | 52.6 µM (inactive) | 43.2 µM (inactive) | 42.5 µM (inactive) | 29.4 µM (inactive) | 54.8 µM (inactive) | 33.6 µM (inactive) | 39.2 µM (inactive) | 97.9 µM (inactive) | 29.6 µM (inactive) | 36 µM (inactive) | 31.5 µM (inactive) | 34.4 µM | 40.1 µM (inactive) | 25.4 µM (inactive) | 26.9 µM (inactive) | 22.5 µM (inactive) | 58.7 µM (inactive) | 37.1 µM (inactive) | 34.7 µM (inactive) | 
CCOC(=O)C12CC(C)=C(C)CC1CCCc1ccccc12 (stereo not drawn) | 18.4 µM (inactive) | 32.7 µM (inactive) | 21.2 µM (inactive) | 30.3 µM (inactive) | 20.8 µM (inactive) | 17 µM (inactive) | 25.1 µM (inactive) | 18.1 µM (inactive) | 14.7 µM (inactive) | 11.2 µM (inactive) | 16.6 µM (inactive) | 22.3 µM | 38.9 µM (inactive) | 39.4 µM (inactive) | 13.5 µM (inactive) | 21.5 µM (inactive) | 28.8 µM (inactive) | 28.9 µM (inactive) | 47 µM (inactive) | 18 µM (inactive)
COc1cc(O)ccc1C(=S)SC | 54.2 µM (inactive) | 38.8 µM (inactive) | 52.8 µM (inactive) | > 100 µM (inactive) | > 100 µM (inactive) | > 100 µM (inactive) | 60.3 µM (inactive) | 47.2 µM (inactive) | 80.9 µM (inactive) | 23.6 µM (inactive) | > 100 µM (inactive) | 40.8 µM | 67.1 µM (inactive) | 38.9 µM (inactive) | 34.2 µM (inactive) | 26.5 µM (inactive) | > 100 µM (inactive) | 58.7 µM (inactive) | 51.6 µM (inactive) | 20.8 µM (inactive)
CCCCCC(=O)OC[n+]1ccc(-c2c(COC(=O)NC(C)C)c(COC(=O)NC(C)C)c3n2CCC3)cc1 | > 100 µM (inactive) | > 100 µM (inactive) | > 100 µM (inactive) | > 100 µM (inactive) | > 100 µM (inactive) | 77.1 µM (inactive) | > 100 µM (inactive) | > 100 µM (inactive) | > 100 µM (inactive) | 37.3 µM (inactive) | > 100 µM (inactive) | > 100 µM | > 94.6 µM (inactive) | > 100 µM (inactive) | > 100 µM (inactive) | > 100 µM (inactive) | > 100 µM (inactive) | > 100 µM (inactive) | > 100 µM (inactive) | 35.9 µM (inactive)
CC(=O)O[C@H]1C(=O)[C@@]2(C)[C@H]([C@H](OC(=O)c3ccccc3)[C@]3(O)C[C@H](OC(=O)[C@H](O)[C@@H](NC(=O)CC(C)(C)C)c4ccccc4)C(C)=C1C3(C)C)C1(OC(C)=O)CO[C@@H]1C[C@@H]2O (stereo partly drawn) | 0.00441 µM (active) | 0.00371 µM (active) | 0.00113 µM (active) |  | 0.00171 µM (active) | < 0.001 µM (active) | 0.0208 µM (active) | 0.00183 µM (active) | < 0.001 µM (active) | 0.00105 µM (active) | 0.0014 µM (active) | 0.223 µM | 0.0023 µM (active) | 4.26 µM (inactive) | 0.0106 µM (active) | 0.00213 µM (active) | < 0.001 µM (active) | 0.00283 µM (active) | 3.96 µM (inactive) | 0.00296 µM (active)
COc1ccccc1/C=C1\NC(=S)N(/C=C2\C(=O)Oc3ccccc3C2=O)C1=O | 23.2 µM (inactive) | 51.6 µM (inactive) |  | 64.1 µM (inactive) | 53.2 µM (inactive) | 71.4 µM (inactive) | 45.2 µM (inactive) | 44.2 µM (inactive) | 14.2 µM (inactive) | 9.84 µM (inactive) | 45.3 µM (inactive) | 32.2 µM | 98.6 µM (inactive) | 24.6 µM (inactive) | 7.76 µM (inactive) | 23.9 µM (inactive) | 30.1 µM (inactive) | 36.6 µM (inactive) | 21.2 µM (inactive) | 11 µM (inactive)
CC(C)(C)OC(=O)NCC(c1c[nH]c2ccccc12)c1c[nH]c2ccccc12 | 16.1 µM (inactive) | 14.6 µM (inactive) |  | 14.9 µM (inactive) | 17 µM (inactive) | 67.5 µM (inactive) | 15.6 µM (inactive) | 15.8 µM (inactive) | 16 µM (inactive) | 14.4 µM (inactive) | 14.6 µM (inactive) | 20.8 µM | 17.1 µM (inactive) | 19.4 µM (inactive) | 13.1 µM (inactive) | 13 µM (inactive) | 14.7 µM (inactive) | 16.7 µM (inactive) | 14.1 µM (inactive) | 11.7 µM (inactive)
O=c1[nH]c2ccc(C(F)(F)F)cc2nc1-c1ccccc1 |  | > 100 µM (inactive) | > 100 µM (inactive) | > 100 µM (inactive) | > 100 µM (inactive) | > 100 µM (inactive) | > 100 µM (inactive) | > 100 µM (inactive) | > 100 µM (inactive) | > 100 µM (inactive) | > 100 µM (inactive) | > 100 µM | > 100 µM (inactive) | > 100 µM (inactive) | > 100 µM (inactive) | > 100 µM (inactive) | > 100 µM (inactive) | 52.4 µM (inactive) |  | > 100 µM (inactive)
CN(C)c1nncc2[nH]nnc12 | > 100 µM (inactive) | > 100 µM (inactive) | > 100 µM (inactive) | > 100 µM (inactive) | > 100 µM (inactive) | > 100 µM (inactive) | > 100 µM (inactive) | > 100 µM (inactive) | > 100 µM (inactive) | > 100 µM (inactive) | > 100 µM (inactive) | > 100 µM |  | > 100 µM (inactive) | > 100 µM (inactive) | > 100 µM (inactive) | > 100 µM (inactive) | > 100 µM (inactive) | > 100 µM (inactive) | > 100 µM (inactive)
N=C(N)C1CN(CCCCCCCCCCN2CC(C(=N)N)C(O)=NC2=O)C(=O)N=C1O (stereo not drawn) | > 10 µM (inactive) | > 10 µM (inactive) | > 10 µM (inactive) | > 10 µM (inactive) | > 10 µM (inactive) | > 10 µM (inactive) | > 10 µM (inactive) | > 10 µM (inactive) | > 10 µM (inactive) | > 10 µM (inactive) | > 10 µM (inactive) | > 10 µM |  | > 10 µM (inactive) | > 10 µM (inactive) | > 10 µM (inactive) | > 10 µM (inactive) | > 10 µM (inactive) |  | > 10 µM (inactive)
CCNc1nc2c(ncn2C2CC(O)C(COP(=O)(O)O)O2)c(=O)[nH]1 (stereo not drawn) | > 100 µM (inactive) | > 100 µM (inactive) |  | > 100 µM (inactive) | > 100 µM (inactive) | > 100 µM (inactive) | > 100 µM (inactive) | > 100 µM (inactive) | > 100 µM (inactive) | > 100 µM (inactive) | > 100 µM (inactive) | > 100 µM | > 100 µM (inactive) | > 100 µM (inactive) | > 100 µM (inactive) | > 100 µM (inactive) | > 100 µM (inactive) | > 100 µM (inactive) |  | 
C/C(=N\NC(N)=S)C(CN1CCCCC1)C(C1=C(O)c2ccccc2OC1)c1ccccc1 (stereo not drawn) | > 100 µM (inactive) | > 100 µM (inactive) |  | > 100 µM (inactive) | > 100 µM (inactive) | > 100 µM (inactive) | > 100 µM (inactive) | > 100 µM (inactive) | > 100 µM (inactive) | 36.1 µM (inactive) | > 100 µM (inactive) | > 100 µM | > 100 µM (inactive) | > 100 µM (inactive) | 22.5 µM (inactive) | > 100 µM (inactive) | > 100 µM (inactive) | > 100 µM (inactive) | > 100 µM (inactive) | 64 µM (inactive)
COC(=O)[C@@H]1OC(C)(c2ccccc2)O[C@H]1C(=O)OC | > 100 µM (inactive) | > 100 µM (inactive) | > 100 µM (inactive) | > 100 µM (inactive) | > 100 µM (inactive) | > 100 µM (inactive) | > 100 µM (inactive) | > 100 µM (inactive) |  | 4.52 µM (inactive) | > 100 µM (inactive) | > 100 µM | > 100 µM (inactive) | > 100 µM (inactive) | > 100 µM (inactive) | > 100 µM (inactive) | > 100 µM (inactive) | > 100 µM (inactive) | > 100 µM (inactive) | > 100 µM (inactive)
CN1C(=O)C23CCCC2CC1(c1ccccc1)S3 (stereo not drawn) | > 100 µM (inactive) | > 100 µM (inactive) | > 100 µM (inactive) | > 100 µM (inactive) | > 100 µM (inactive) | > 100 µM (inactive) | > 100 µM (inactive) | 45.2 µM (inactive) | > 100 µM (inactive) | 60.7 µM (inactive) | > 100 µM (inactive) | > 100 µM | > 100 µM (inactive) | 64.9 µM (inactive) | 41 µM (inactive) | > 100 µM (inactive) |  | > 100 µM (inactive) | > 100 µM (inactive) | > 100 µM (inactive)
CC(=O)OC[C@@H](OC(C)=O)[C@@H](OC(C)=O)[C@H]1OC[C@@H]2C[C@H]([C@H]1OC(C)=O)N(Cc1ccccc1)O2 | > 100 µM (inactive) | > 100 µM (inactive) | > 100 µM (inactive) | > 100 µM (inactive) | > 100 µM (inactive) | > 100 µM (inactive) | > 100 µM (inactive) | > 100 µM (inactive) | > 100 µM (inactive) | > 100 µM (inactive) | > 100 µM (inactive) |  | > 100 µM (inactive) | > 100 µM (inactive) | > 100 µM (inactive) | > 100 µM (inactive) | > 100 µM (inactive) |  | 61.7 µM (inactive) | > 100 µM (inactive)
